Data from publication PMC10903759 (Journal of Genetic Engineering & Biotechnology, 2024).
Where no end group is shown, it is not given here.

System: leaf rust (Puccinia triticina, CCDS-96-14-1 isolate) urediniospores
Format: cell-based

KEICCKELTKPVKCSSDPLCQKLCMEKEKYEDGHCFTILSKCLCMKRCNAKTLATELLA (disulfide (positions not given here)) [CaThi]
germination rate of urediniospores: 22.73 % ± 7.39
